Assay results from patent US20170071976A1, “PHARMACEUTICAL SOLUTION HAVING ANTI-TUMOR EFFECT-ENHANCING AND TOXICITY-REDUCING EFFECT, AND PHARMACEUTICAL COMPOSITION COMPRISING SAME” (priority 2014, published 2017).

Legend:
Assay in all cases: MTT assay: in vitro inhibition of growth by deuterium oxide
Format in all cases: cell-based, human
[1] = test system: SKOV3 ovarian cancer cell line
Experimental: (§1) Studies of in vitro inhibition of growth of human tumor cells by deuterium oxide, by the MTT (3-(4,5-dimethylthiazol-2-yl)-2,5-diphenyltetrazolium bromide) assay
(§2) 1. A bottle of cells that had been cultured for 3 to 4 days and were in the exponential phase was taken, a suitable amount of 0.25% Trypsin-EDTA solution was added thereto to detach the cells from the wall, and the cells were suspended in 10 ml RPMI 1640 medium containing 10% FBS. 2. The cells were counted on a hemocytometer, and generally viable cells should be not less than 97%. 3. The cell suspension was diluted with a complete medium to prepare a suspension containing 1×10^4 cells/ml. 4. To each well of a 12-well culture plate, 300 μl cell suspension was added. The addition of cells should be finished within 4 hours. The plate was placed in an incubator at 37° C. and 5% CO2 for 24 hours. 5. Powdery RPMI Medium 1640 (Gibco, USA, Cat#: 31800-022) was dissolved in deuterium oxide (provided by Cambridge Isotope Laboratories, Inc. (US)) to prepare a cell culture medium (unless particularly specified, all culture media used in the Examples hereinafter were prepared from powdery RPMI Medium 1640 and deuterium oxide) at a concentration shown in Table 1, which was added into the cell culture plate. 6. The cell culture plate was incubated for 3 days in an incubator at 37° C., 5% CO2 and 100% humidity. 7. A solution of 1 mg/ml MTT was prepared in a serum-free RPMI1640 medium, added to the plate at 200 μl/well, and incubated at 37° C. for 4 hours, to allow MTT to be reduced to formazan. 8. The supernatant was removed by pipetting, 200 μl DMSO was added to dissolve formazan, and the solution was well mixed on a platform shaker. 9. Absorbance of each well was measured on an ELISA reader with a detection wavelength of 570 nm and a reference wavelength of 450 nm. 10. The assay was repeated one more time.
(§3) Calculation of results: Inhibition of growth of tumor cells by deuterium oxide was calculated using tumor cells treated with sodium chloride physiological solution as a control group. Inhibition of cell growth was plotted against amounts of deuterium oxide to obtain a dose response curve, from which the half maximal inhibitory concentration (IC50) of deuterium oxide was derived.
(§4) Inhibition of tumor cell growth (%)=(1−OD test/OD control)×100%

[2] = test system: PANC-1 pancreatic cancer cell line
Experimental: as §1, §2, §3, §4

[3] = test system: BGC-823 gastric cancer cell line
Experimental: as §1, §2, §3, §4

[4] = test system: SF767 brain cancer cell line
Experimental: as §1, §2, §3, §4

[5] = test system: NCI-1975 lung cancer cell line
Experimental: as §1, §2, §3, §4

[6] = test system: HCT-116 colon cancer cell line
Experimental: as §1, §2, §3, §4

[7] = test system: NCI-H460 lung cancer cell line
Experimental: as §1, §2, §3, §4

[8] = test system: HeLa cervical cancer cell line
Experimental: as §1, §2, §3, §4

## [2H]O[2H] [Deuterium oxide]
[1]; deuterium oxide 1.2% (v/v)
  Inhibition of growth (%): 1.82%
[1]; deuterium oxide 2.5% (v/v)
  Inhibition of growth (%): 7.35%
[1]; deuterium oxide 5% (v/v)
  Inhibition of growth (%): 8.33%
[1]; deuterium oxide 10% (v/v)
  Inhibition of growth (%): 9.65%
[1]; deuterium oxide 20% (v/v)
  Inhibition of growth (%): 12.64%
[1]; deuterium oxide 30% (v/v)
  Inhibition of growth (%): 16.69%
[1]; deuterium oxide 40% (v/v)
  Inhibition of growth (%): 32.76%
[1]; deuterium oxide 50% (v/v)
  Inhibition of growth (%): 41.80%
[1]; deuterium oxide 60% (v/v)
  Inhibition of growth (%): 59.84%
[1]; deuterium oxide 70% (v/v)
  Inhibition of growth (%): 74.07%
[1]; deuterium oxide 80% (v/v)
  Inhibition of growth (%): 90.42%
[2]; deuterium oxide 1.2% (v/v)
  Inhibition of growth (%): 7.37%
[2]; deuterium oxide 2.5% (v/v)
  Inhibition of growth (%): 13.88%
[2]; deuterium oxide 5% (v/v)
  Inhibition of growth (%): 14.41%
[2]; deuterium oxide 10% (v/v)
  Inhibition of growth (%): 8.43%
[2]; deuterium oxide 20% (v/v)
  Inhibition of growth (%): 9.06%
[2]; deuterium oxide 30% (v/v)
  Inhibition of growth (%): 17.81%
[2]; deuterium oxide 40% (v/v)
  Inhibition of growth (%): 26.73%
[2]; deuterium oxide 50% (v/v)
  Inhibition of growth (%): 31.62%
[2]; deuterium oxide 60% (v/v)
  Inhibition of growth (%): 50.31%
[2]; deuterium oxide 70% (v/v)
  Inhibition of growth (%): 57.29%
[2]; deuterium oxide 80% (v/v)
  Inhibition of growth (%): 79.05%
[2]; expressed in v/v %
  IC10: 3.03%
  IC50: 65.38%
[3]; deuterium oxide 1.2% (v/v)
  Inhibition of growth (%): 2.74%
[3]; deuterium oxide 2.5% (v/v)
  Inhibition of growth (%): 2.15%
[3]; deuterium oxide 5% (v/v)
  Inhibition of growth (%): −4.23%
[3]; deuterium oxide 10% (v/v)
  Inhibition of growth (%): −3.60%
[3]; deuterium oxide 20% (v/v)
  Inhibition of growth (%): 9.09%
[3]; deuterium oxide 30% (v/v)
  Inhibition of growth (%): 12.32%
[3]; deuterium oxide 40% (v/v)
  Inhibition of growth (%): 7.50%
[3]; deuterium oxide 50% (v/v)
  Inhibition of growth (%): 15.99%
[3]; deuterium oxide 60% (v/v)
  Inhibition of growth (%): 37.83%
[3]; deuterium oxide 70% (v/v)
  Inhibition of growth (%): 61.90%
[3]; deuterium oxide 80% (v/v)
  Inhibition of growth (%): 74.57%
[3]; expressed in v/v %
  IC10: 26.92%
  IC50: 96.68%
[4]; deuterium oxide 1.2% (v/v)
  Inhibition of growth (%): 4.76%
[4]; deuterium oxide 2.5% (v/v)
  Inhibition of growth (%): 3.94%
[4]; deuterium oxide 5% (v/v)
  Inhibition of growth (%): −4.41%
[4]; deuterium oxide 10% (v/v)
  Inhibition of growth (%): −8.43%
[4]; deuterium oxide 20% (v/v)
  Inhibition of growth (%): 7.66%
[4]; deuterium oxide 30% (v/v)
  Inhibition of growth (%): 8.42%
[4]; deuterium oxide 40% (v/v)
  Inhibition of growth (%): 16.50%
[4]; deuterium oxide 50% (v/v)
  Inhibition of growth (%): 21.23%
[4]; deuterium oxide 70% (v/v)
  Inhibition of growth (%): 49.65%
[4]; deuterium oxide 80% (v/v)
  Inhibition of growth (%): 71.22%
[4]; expressed in v/v %
  IC10: 31.85%
  IC50: 91.12%
[5]; deuterium oxide 1.2% (v/v)
  Inhibition of growth (%): 0.84%
[5]; deuterium oxide 2.5% (v/v)
  Inhibition of growth (%): −8.29%
[5]; deuterium oxide 5% (v/v)
  Inhibition of growth (%): −7.44%
[5]; deuterium oxide 10% (v/v)
  Inhibition of growth (%): −4.95%
[5]; deuterium oxide 20% (v/v)
  Inhibition of growth (%): 5.60%
[5]; deuterium oxide 30% (v/v)
  Inhibition of growth (%): 6.66%
[5]; deuterium oxide 40% (v/v)
  Inhibition of growth (%): 24.03%
[5]; deuterium oxide 50% (v/v)
  Inhibition of growth (%): 39.10%
[5]; deuterium oxide 60% (v/v)
  Inhibition of growth (%): 51.93%
[5]; deuterium oxide 70% (v/v)
  Inhibition of growth (%): 79.65%
[5]; deuterium oxide 80% (v/v)
  Inhibition of growth (%): 87.23%
[5]; expressed in v/v %
  IC10: 27.00%
  IC50: 62.61%
[6]; deuterium oxide 1.2% (v/v)
  Inhibition of growth (%): 11.81%
[6]; deuterium oxide 2.5% (v/v)
  Inhibition of growth (%): 31.55%
[6]; deuterium oxide 5% (v/v)
  Inhibition of growth (%): 21.64%
[6]; deuterium oxide 10% (v/v)
  Inhibition of growth (%): 18.58%
[6]; deuterium oxide 20% (v/v)
  Inhibition of growth (%): 23.32%
[6]; deuterium oxide 30% (v/v)
  Inhibition of growth (%): 30.21%
[6]; deuterium oxide 40% (v/v)
  Inhibition of growth (%): 37.43%
[6]; deuterium oxide 50% (v/v)
  Inhibition of growth (%): 48.43%
[6]; deuterium oxide 60% (v/v)
  Inhibition of growth (%): 66.31%
[6]; deuterium oxide 70% (v/v)
  Inhibition of growth (%): 70.42%
[6]; deuterium oxide 80% (v/v)
  Inhibition of growth (%): 94.62%
[6]; expressed in v/v %
  IC10: 0.25%
  IC50: 51.13%
[7]; deuterium oxide 1.2% (v/v)
  Inhibition of growth (%): 1.15%
[7]; deuterium oxide 2.5% (v/v)
  Inhibition of growth (%): 9.40%
[7]; deuterium oxide 5% (v/v)
  Inhibition of growth (%): 11.27%
[7]; deuterium oxide 10% (v/v)
  Inhibition of growth (%): 9.47%
[7]; deuterium oxide 20% (v/v)
  Inhibition of growth (%): 11.60%
[7]; deuterium oxide 30% (v/v)
  Inhibition of growth (%): 30.58%
[7]; deuterium oxide 40% (v/v)
  Inhibition of growth (%): 42.05%
[7]; deuterium oxide 50% (v/v)
  Inhibition of growth (%): 53.09%
[7]; deuterium oxide 60% (v/v)
  Inhibition of growth (%): 69.50%
[7]; deuterium oxide 70% (v/v)
  Inhibition of growth (%): 82.33%
[7]; deuterium oxide 80% (v/v)
  Inhibition of growth (%): 98.06%
[7]; expressed in v/v %
  IC10: 5.60%
  IC50: 48.75%
[8]; deuterium oxide 1.2% (v/v)
  Inhibition of growth (%): 12.11%
[8]; deuterium oxide 2.5% (v/v)
  Inhibition of growth (%): 14.44%
[8]; deuterium oxide 5% (v/v)
  Inhibition of growth (%): 16.25%
[8]; deuterium oxide 10% (v/v)
  Inhibition of growth (%): 28.87%
[8]; deuterium oxide 20% (v/v)
  Inhibition of growth (%): 36.12%
[8]; deuterium oxide 30% (v/v)
  Inhibition of growth (%): 45.41%
[8]; deuterium oxide 40% (v/v)
  Inhibition of growth (%): 58.26%
[8]; deuterium oxide 50% (v/v)
  Inhibition of growth (%): 65.63%
[8]; deuterium oxide 60% (v/v)
  Inhibition of growth (%): 73.32%
[8]; deuterium oxide 70% (v/v)
  Inhibition of growth (%): 85.82%
[8]; deuterium oxide 80% (v/v)
  Inhibition of growth (%): 90.11%
[8]; expressed in v/v %
  IC10: 1.8%
  IC50: 68.33%
